Test results as given in the supplement of paper PMC11451515.

Key:
Conditions in all cases: 48 h
[1] = system: NOMO1; experiment: AUC of viability dose-response curve (% viability x log10 dose units); higher = less sensitive
Method in brief: (§1)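 Area under the curve was integrated by trapezoidal rule from a log-logistic fit of normalised viability, with curves exceeding full viability scaled and quality-control failures removed. The fit had four parameters over log10 doses. Viability came from CellTiter-Glo One luminescence, normalised per plate to DMSO and cell-free wells, after leukemia cells adapted to each medium (500 or 1000 cells/well, 1536-well plates) were exposed to library compounds in DMSO for 48 h at 37°C. The 11 threefold doses ran from 47 μM to 0.79 nM.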

[2] = system: SEM cells; experiment: as above
Method in brief: as §1

[3] = system: P12-Ichikawa; experiment: as above
Method in brief: as §1

[4] = system: SEM cells; experiment: cell viability relative to DMSO control; higher = less cytotoxic
Method in brief: (§2)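 In 1536-well plates, 5 μl of leukemia cells were seeded per well: 500 cells/well for NOMO1 or SEM and 1000 cells/well for P12-Ichikawa. Each line had first been adapted for at least four passages in each medium. Library compounds in DMSO were pin-dosed at 11 threefold concentrations between 47 μM and 0.79 nM, and CellTiter-Glo One luminescence was read after 48 h at 37°C. Viability is a per-plate percentage relative to DMSO wells, with cell-free wells as background.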

[5] = system: NOMO1; experiment: as above
Method in brief: as §2

[6] = system: P12-Ichikawa; experiment: as above
Method in brief: as §2

CC(C)(C)c1nc(-c2cccc(N[S+](=O)([O-])c3c(F)cccc3F)c2F)c(-c2ccnc(N)n2)s1
AUC of viability dose-response curve
Conditions | [1] | [2] | [3]
HPLM + 10% dialyzed FBS | 423 | 439 | 428
RPMI 5 mM glucose + 10% FBS | 447 | 430 | 409
RPMI 5 mM glucose + 10% dialyzed FBS | 434 | 425 | 385

O=C(CCCCCCNC(=O)c1cnc(N(c2ccccc2)c2ccccc2)nc1)NO
AUC of viability dose-response curve
Conditions | [1] | [2] | [3]
HPLM + 10% dialyzed FBS | 417 | 399 | 393
RPMI 5 mM glucose + 10% FBS | 422 | 390 | 386
RPMI 5 mM glucose + 10% dialyzed FBS | 426 | 392 | 382

CC(C)(O)CCc1ccc(OCc2cc(-c3cccc(OC(F)F)c3)c3ncccc3c2)cc1
[4], HPLM + 10% dialyzed FBS
Conditions | cell viability [%]
0.000781 µM | 96
0.00234 µM | 98.7
0.00702 µM | 108
0.0211 µM | 118
0.0632 µM | 113
0.19 µM | 126
0.569 µM | 115
1.71 µM | 127
5.12 µM | 137
15.4 µM | 119
46.1 µM | 134

AUC of viability dose-response curve
Conditions | [1] | [2] | [3]
HPLM + 10% dialyzed FBS | 468 | 435 | 466
RPMI 5 mM glucose + 10% FBS | 457 | 445 | 457
RPMI 5 mM glucose + 10% dialyzed FBS | 460 | 469 | 456

CCN1\C=C(\C(O)=O)C(=O)C2=C1N=C(N3CCNCC3)C(=C2)F
cell viability [%]
Conditions | [4] | [5] | [6]
HPLM + 10% dialyzed FBS, 0.000781 µM | 58.6 | 74.8 | 75.4
HPLM + 10% dialyzed FBS, 0.00234 µM | 79.7 | 73.4 | 89.2
HPLM + 10% dialyzed FBS, 0.00702 µM | 68.2 | 85.3 | 85.8
HPLM + 10% dialyzed FBS, 0.0211 µM | 87.3 | 93 | 94.9
HPLM + 10% dialyzed FBS, 0.0632 µM | 84.8 | 88.6 | 91.8
HPLM + 10% dialyzed FBS, 0.19 µM | 92.3 | 82.2 | 93.7
HPLM + 10% dialyzed FBS, 0.569 µM | 84.8 | 86.2 | 94.1
HPLM + 10% dialyzed FBS, 1.71 µM | 88.5 | 84.3 | 91.9
HPLM + 10% dialyzed FBS, 5.12 µM | 84.2 | 46 | 91.4
HPLM + 10% dialyzed FBS, 15.4 µM | 81 | 42 | 92.2
HPLM + 10% dialyzed FBS, 46.1 µM | 68 | 20.3 | 84.1
RPMI 5 mM glucose + 10% FBS, 0.000781 µM | 77.9 | 78 | 72.1
RPMI 5 mM glucose + 10% FBS, 0.00234 µM | 102 | 83.9 | 82.1
RPMI 5 mM glucose + 10% FBS, 0.00702 µM | 72 | 93 | 76
RPMI 5 mM glucose + 10% FBS, 0.0211 µM | 82 | 83.8 | 86.3
RPMI 5 mM glucose + 10% FBS, 0.0632 µM | 92.5 | 81.1 | 80.7
RPMI 5 mM glucose + 10% FBS, 0.19 µM | 84.5 | 85.1 | 81.6
RPMI 5 mM glucose + 10% FBS, 0.569 µM | 92.8 | 79 | 79.4
RPMI 5 mM glucose + 10% FBS, 1.71 µM | 81.9 | 86.4 | 78.4
RPMI 5 mM glucose + 10% FBS, 5.12 µM | 86 | 81.4 | 85.7
RPMI 5 mM glucose + 10% FBS, 15.4 µM | 89.6 | 79.1 | 83.6
RPMI 5 mM glucose + 10% FBS, 46.1 µM | 77.4 | 16 | 81
RPMI 5 mM glucose + 10% dialyzed FBS, 0.000781 µM | 74.9 | 55.2 | 74.1
RPMI 5 mM glucose + 10% dialyzed FBS, 0.00234 µM | 86.8 | 91 | 82.6
RPMI 5 mM glucose + 10% dialyzed FBS, 0.00702 µM | 71.2 | 81.6 | 77.7
RPMI 5 mM glucose + 10% dialyzed FBS, 0.0211 µM | 90.4 | 82.5 | 90.3
RPMI 5 mM glucose + 10% dialyzed FBS, 0.0632 µM | 78.1 | 79.2 | 84.1
RPMI 5 mM glucose + 10% dialyzed FBS, 0.19 µM | 84 | 74.1 | 76.9
RPMI 5 mM glucose + 10% dialyzed FBS, 0.569 µM | 90.5 | 82.6 | 88.7
RPMI 5 mM glucose + 10% dialyzed FBS, 1.71 µM | 93.9 | 82.5 | 83.3
RPMI 5 mM glucose + 10% dialyzed FBS, 5.12 µM | 81.5 | 81 | 77.2
RPMI 5 mM glucose + 10% dialyzed FBS, 15.4 µM | 103 | 76.3 | 83.4
RPMI 5 mM glucose + 10% dialyzed FBS, 46.1 µM | 87.8 | 20.1 | 95.1

AUC of viability dose-response curve
Conditions | [1] | [2] | [3]
HPLM + 10% dialyzed FBS | 343 | 385 | 430
RPMI 5 mM glucose + 10% FBS | 380 | 407 | 386
RPMI 5 mM glucose + 10% dialyzed FBS | 361 | 409 | 396

CC(C)(O)[C@H]1CC[C@@](C)([C@H]2[C@@H](O)C[C@@]3(C)[C@@H]4C[C@H](O[C@@H]5O[C@H](CO)[C@@H](O)[C@H](O)[C@H]5O)[C@H]5C(C)(C)[C@@H](O[C@@H]6OC[C@@H](O)[C@H](O)[C@H]6O)CC[C@@]56C[C@@]46CC[C@]23C)O1
cell viability [%], [4]
Conditions | HPLM + 10% dialyzed FBS | RPMI 5 mM glucose + 10% FBS
0.000781 µM | 118 | 119
0.00234 µM | 118 | 123
0.00702 µM | 121 | 133
0.0211 µM | 124 | 120
0.0632 µM | 128 | 124
0.19 µM | 126 | 123
0.569 µM | 129 | 130
1.71 µM | 117 | 121
5.12 µM | 89.2 | 108
15.4 µM | 109 | 105
46.1 µM | 106 | 128

AUC of viability dose-response curve
Conditions | [1] | [2] | [3]
HPLM + 10% dialyzed FBS | 464 | 454 | 456
RPMI 5 mM glucose + 10% FBS | 446 | 465 | 451
RPMI 5 mM glucose + 10% dialyzed FBS | 449 | 466 | 450

O=C(N[C@@H](c1ccccc1)[C@@H]1CCCCN1)c1cccc(C(F)(F)F)c1Cl
AUC of viability dose-response curve
Conditions | [1] | [2] | [3]
HPLM + 10% dialyzed FBS | 444 | 461 | 465
RPMI 5 mM glucose + 10% FBS | 462 | 450 | 465
RPMI 5 mM glucose + 10% dialyzed FBS | 408 | 407 | 464

C[C@]1(CO)CN(c2cc(C(=O)Nc3ccc4c(c3)-c3c(c(C(N)=O)nn3-c3ccc(F)cc3)CC4)c(Cl)cn2)C[C@@]1(C)CO
AUC of viability dose-response curve
Conditions | [1] | [2] | [3]
HPLM + 10% dialyzed FBS | 446 | 421 | 418
RPMI 5 mM glucose + 10% FBS | 457 | 317 | 423
RPMI 5 mM glucose + 10% dialyzed FBS | 445 | 422 | 422

CN(C)Cc1c(C(=O)NCCOc2ccc(C(=O)NO)cc2)oc2ccccc12
AUC of viability dose-response curve
Conditions | [1] | [2] | [3]
HPLM + 10% dialyzed FBS | 366 | 324 | 347
RPMI 5 mM glucose + 10% FBS | 372 | 326 | 345
RPMI 5 mM glucose + 10% dialyzed FBS | 375 | 332 | 357

O=C1NCCc2[nH]c(-c3ccncc3)cc21
[4], HPLM + 10% dialyzed FBS
Conditions | cell viability [%]
0.000781 µM | 106
0.00234 µM | 118
0.00702 µM | 119
0.0211 µM | 128
0.0632 µM | 133
0.19 µM | 140
0.569 µM | 147
1.71 µM | 149
5.12 µM | 149
15.4 µM | 41.2
46.1 µM | 8.55

AUC of viability dose-response curve
Conditions | [1] | [2] | [3]
HPLM + 10% dialyzed FBS | 428 | 421 | 433
RPMI 5 mM glucose + 10% FBS | 439 | 423 | 428
RPMI 5 mM glucose + 10% dialyzed FBS | 431 | 430 | 426
